# Experimental data as given in ChEMBL document CHEMBL5727951, “Substituted benzamides and methods of use thereof” (2020).
# Assay: Tritiated Sulfonamide Binding to Membranes: isolated from cells that heterologously express hNav1.7 and the β1 subunit Preparation of membranes containing recombinantly expressed sodium channels: Frozen recombinant cell pellets were thawed on ice and diluted to 4 times the cell pellet weight with ice cold 50 mM Tris HCl, pH 7.4 buffer. The cell suspensions were homogenized on ice using a motorized glass dounce homogeniser. Homogenates were further diluted 8.4 times with ice cold 50 mM Tris HCl, pH 7.4 buffer and then centrifuged at 200×g at 4° C. for 15 min. The supernatants were collected and centrifuged at 10000×g at 4° C. for 50 min. The pellets were then re-suspended in 100 mM NaCl, 20 mM Tris HCl, pH 7.4 buffer containing 1% v/v protease inhibitors (Calbiochem) and re-homogenized on ice. The homogenized membranes were then processed through a syringe equipped with a 26 gauge needle. Protein concentrations were determined by Bradford Assay and the membranes were stored at −80° C.Radioligand Binding Studies:Saturation experiments. A representative compound of formula (I) having a methyl group was tritiated. Three tritiums were incorporated in place of methyl hydrogens to generate [3H]compound. Binding of this radioligand was preformed in 5 mL borosilicate glass test tubes at room temperature. Binding was initiated by adding membranes to increasing concentrations of [3H]compound in 100 mM NaCl, 20 mM Tris HCl, pH 7.4 buffer containing 0.01% w/v bovine serum albumin (BSA) for 18 h. Non-specific binding was determined in the presence of 1 μM unlabelled compound. After 18 h, the reactants were filtered through GF/C glass fiber filters presoaked in 0.5% w/v polyethylene imine. Filters were washed with 15 mL ice cold 100 mM NaCl, 20 mM Tris HCl, pH7.4 buffer containing 0.25% BSA to separate bound from free ligand. [3H]compound bound to filters was quantified by liquid scintillation counting.Competitive Binding Experiments:Binding reactions were preformed in 96-well polypropylene plates at room temperature for 18 h. In 360 μL, membranes were incubated with 100 pM [3H]compound and increasing concentrations of Test Compound. Non-specific binding was defined in the presence of 1 μM unlabelled compound. Reactions were transferred and filtered through 96-well glass fiber/C filter plates presoaked with 0.5% polyethylene imine. The filtered reactions were washed 5 times with 200 μL ice cold buffer containing 0.25% BSA. Bound radioactivity was determined by liquid scintillation counting.Data Analysis: For saturation experiments, non-specific binding was subtracted from total binding to provide specific binding and these values were recalculated in terms of pmol ligand bound per mg protein. Saturation curves were constructed and dissociation constants were calculated using the single site ligand binding model: Beq=(Bmax*X)/(X+Kd), where Beq is the amount of ligand bound at equilibrium, Bmax is the maximum receptor density, Kd is the dissociation constant for the ligand, and X is the free ligand concentration. For competition studies percent inhibition was determined and IC50 values were calculated using a 4 parameter logistic model (% inhibition=(A+((B−A)/(1+((x/C)^D)))) using XLfit, where A and B are the maximal and minimum inhibition respectively, C is the IC50 concentration and D is the (Hill) slope.
row,SMILES,IC50 [nM]
1,CC(C)Oc1ncc(Oc2cc(F)c(C(=O)NS(=N)(=O)C3CC3)cc2Cl)cc1Cl (centres undefined),18.1
2,N=S(=O)(NC(=O)c1cc(F)c(Oc2ccc(OC(F)(F)F)c(Cl)c2)cc1F)C1CC1 (centres undefined),238
3,C[C@@H](c1cc(Cl)cc(Cl)c1)N1CCC(COc2ccc(C(=O)NS(=N)(=O)C3CC3)cc2C2CC2)CC1 (some centres undefined),616
4,COc1ncccc1-c1cc(C(=O)NS(=N)(=O)C2CC2)c(F)cc1Oc1cnc(OC(C)C)c(Cl)c1 (centres undefined),19.8
5,N=S(=O)(NC(=O)c1cc(Cl)c(Oc2cnc(OCC(F)(F)C(F)F)c(Cl)c2)cc1F)C1CC1 (centres undefined),23.8
6,N=S(=O)(NC(=O)c1cc(Cl)c(Oc2cnc(OCC(F)(F)F)c(Cl)c2)cc1F)C1CC1 (centres undefined),23.6
7,N=S(=O)(NC(=O)c1cc(C2CC2)c(COc2cc(Cl)cc(OC(F)(F)F)c2)cc1F)C1CC1 (centres undefined),8.67

# The next lines start with the values.
row,IC50 [nM],SMILES
1,2290,N=S(=O)(NC(=O)c1cc(C2CC2)c(O[C@@H]2CCCN(Cc3c(Cl)cccc3Cl)C2)cc1F)C1CC1 (some centres undefined)
2,210,COc1cc(C(=O)NS(=N)(=O)C2CC2)c(F)cc1OCC12CC3CC(CC(C3)C1)C2 (centres undefined)
3,14.2,N=S(=O)(NC(=O)c1cc(C2CC2)c(COc2cc(F)cc(C(F)(F)F)c2)cc1F)C1CC1 (centres undefined)
4,80.9,N=S(=O)(NC(=O)c1cc(C2CC2)c(OCC23CC4CC(CC(C4)C2)C3)cc1F)N1CCC1 (centres undefined)
5,92.5,C[C@@H](c1cc(Cl)cc(Cl)c1)N1CCC(COc2cc(F)c(C(=O)NS(=N)(=O)C3CC3)cc2C2CC2)CC1 (some centres undefined)
6,159,N=S(=O)(NC(=O)c1cc(Cl)c(Oc2cnc(OCC(F)(F)C(F)F)c(Cl)c2)cc1F)N1CCC1 (centres undefined)
7,182,N=S(=O)(NC(=O)c1cc(C2CC2)c(OCC2(F)CCN(Cc3cc(C(F)(F)F)cc(Cl)c3F)CC2)cc1F)C1CC1 (centres undefined)
